Experimental data as given in ChEMBL document CHEMBL1909551, “Design, synthesis and in vitro evaluation of bridgehead fluoromethyl analogs of N-{2-[4-(2-methoxyphenyl)piperazin-1-yl]ethyl}-N-(pyridin-2-yl)cyclohexanecarboxamide (WAY-100635) for the 5-HT(1A) receptor” (Eur J Med Chem, 2011).
pIC50, pKi: −log10 of the molar value.

Experiments:
[1] = target: T1, Alpha-1A adrenergic receptor (Homo sapiens, UniProt P35348)
T1 sequence (P35348 whole entry): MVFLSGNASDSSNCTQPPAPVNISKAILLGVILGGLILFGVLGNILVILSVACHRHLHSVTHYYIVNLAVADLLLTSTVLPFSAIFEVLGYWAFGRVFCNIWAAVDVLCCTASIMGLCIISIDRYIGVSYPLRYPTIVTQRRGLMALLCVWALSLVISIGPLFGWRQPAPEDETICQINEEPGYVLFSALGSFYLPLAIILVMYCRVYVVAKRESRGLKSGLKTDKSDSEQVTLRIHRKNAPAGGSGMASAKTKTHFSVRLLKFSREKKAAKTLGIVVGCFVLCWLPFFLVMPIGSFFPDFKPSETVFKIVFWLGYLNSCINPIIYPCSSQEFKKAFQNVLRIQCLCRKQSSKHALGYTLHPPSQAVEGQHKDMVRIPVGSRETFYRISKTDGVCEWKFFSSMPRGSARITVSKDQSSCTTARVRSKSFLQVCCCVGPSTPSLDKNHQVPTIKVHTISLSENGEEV
Description: Binding affinity to alpha1A receptor

[2] = tested on: Hepatocyte; conditions: human, hepatocytes, 2.5 h
Description: Metabolic stability in human hepatocytes assessed as compound remaining at 50 MBq after 150 mins by radioactivity-based HPLC analysis

[3] = target: T2, 5-hydroxytryptamine receptor 1A (Homo sapiens, UniProt P08908); test: biochemical
T2 sequence (P08908 whole entry): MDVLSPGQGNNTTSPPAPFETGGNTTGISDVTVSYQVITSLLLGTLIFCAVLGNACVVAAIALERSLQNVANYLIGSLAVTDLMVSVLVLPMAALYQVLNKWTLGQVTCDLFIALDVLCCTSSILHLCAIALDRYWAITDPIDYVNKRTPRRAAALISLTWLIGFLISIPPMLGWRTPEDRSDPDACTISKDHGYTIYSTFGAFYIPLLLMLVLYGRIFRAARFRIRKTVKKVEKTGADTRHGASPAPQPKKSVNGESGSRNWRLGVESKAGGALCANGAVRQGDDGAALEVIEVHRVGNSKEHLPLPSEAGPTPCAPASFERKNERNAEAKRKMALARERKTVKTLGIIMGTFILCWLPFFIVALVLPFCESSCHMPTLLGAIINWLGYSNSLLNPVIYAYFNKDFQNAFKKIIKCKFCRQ
Description: Displacement of [3H]8-OH-DPAT from human 5HT1A receptor expressed in HEK293 EBNA cells after 2 hrs by liquid scintillation counting

[4] = tested on: Hepatocyte; conditions: human, hepatocytes, 1 h
Description: Metabolic stability in human hepatocytes assessed as compound remaining at 50 MBq after 60 mins by radioactivity-based HPLC analysis

[5] = tested on: Hepatocyte; conditions: human, hepatocytes, 0.25 h
Description: Metabolic stability in human hepatocytes assessed as compound remaining at 50 MBq after 15 mins by radioactivity-based HPLC analysis

[6] = physchem; conditions: buffer, pH 7.4
[7] = target: T3, D(4) dopamine receptor (Homo sapiens, UniProt P21917); test: biochemical
T3 sequence (P21917 whole entry): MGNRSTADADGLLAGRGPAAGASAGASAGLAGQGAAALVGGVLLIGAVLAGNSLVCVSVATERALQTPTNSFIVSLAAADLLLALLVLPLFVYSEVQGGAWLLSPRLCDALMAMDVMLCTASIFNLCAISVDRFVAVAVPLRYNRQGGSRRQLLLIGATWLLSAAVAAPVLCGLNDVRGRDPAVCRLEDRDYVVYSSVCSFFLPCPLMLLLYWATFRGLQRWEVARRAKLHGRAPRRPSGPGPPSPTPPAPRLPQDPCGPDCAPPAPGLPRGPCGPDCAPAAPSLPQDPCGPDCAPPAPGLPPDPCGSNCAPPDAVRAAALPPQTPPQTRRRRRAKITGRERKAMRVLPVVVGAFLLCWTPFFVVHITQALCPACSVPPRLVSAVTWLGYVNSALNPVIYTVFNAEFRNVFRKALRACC
Description: Displacement of [3H]N-methylspiperone from dopamine D4 receptor expressed in HEK293 EBNA cells by radioligand binding assay

[8] = target: T4, Alpha-1D adrenergic receptor (Homo sapiens, UniProt P25100); test: biochemical
T4 sequence (P25100 whole entry): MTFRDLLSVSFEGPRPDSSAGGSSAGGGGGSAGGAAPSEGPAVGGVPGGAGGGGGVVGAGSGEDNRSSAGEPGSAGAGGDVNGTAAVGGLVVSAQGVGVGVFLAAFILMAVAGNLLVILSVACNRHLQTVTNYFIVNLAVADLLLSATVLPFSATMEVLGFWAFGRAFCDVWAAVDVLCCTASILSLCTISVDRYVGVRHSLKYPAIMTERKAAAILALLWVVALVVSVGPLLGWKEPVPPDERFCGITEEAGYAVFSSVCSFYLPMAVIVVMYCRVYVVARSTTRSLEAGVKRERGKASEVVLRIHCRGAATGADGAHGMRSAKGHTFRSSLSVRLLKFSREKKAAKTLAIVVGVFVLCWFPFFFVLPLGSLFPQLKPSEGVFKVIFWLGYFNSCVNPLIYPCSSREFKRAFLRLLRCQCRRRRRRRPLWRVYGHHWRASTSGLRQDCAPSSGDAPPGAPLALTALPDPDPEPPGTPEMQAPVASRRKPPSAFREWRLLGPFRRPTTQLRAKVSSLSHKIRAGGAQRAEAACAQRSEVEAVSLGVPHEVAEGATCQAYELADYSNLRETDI
Description: Displacement of [3H]prazosin from Alpha-1D receptor expressed in HEK293 EBNA cells by radioligand binding assay

[9] = target: T5, Alpha-1B adrenergic receptor (Homo sapiens, UniProt P35368); test: biochemical
T5 sequence (P35368 whole entry): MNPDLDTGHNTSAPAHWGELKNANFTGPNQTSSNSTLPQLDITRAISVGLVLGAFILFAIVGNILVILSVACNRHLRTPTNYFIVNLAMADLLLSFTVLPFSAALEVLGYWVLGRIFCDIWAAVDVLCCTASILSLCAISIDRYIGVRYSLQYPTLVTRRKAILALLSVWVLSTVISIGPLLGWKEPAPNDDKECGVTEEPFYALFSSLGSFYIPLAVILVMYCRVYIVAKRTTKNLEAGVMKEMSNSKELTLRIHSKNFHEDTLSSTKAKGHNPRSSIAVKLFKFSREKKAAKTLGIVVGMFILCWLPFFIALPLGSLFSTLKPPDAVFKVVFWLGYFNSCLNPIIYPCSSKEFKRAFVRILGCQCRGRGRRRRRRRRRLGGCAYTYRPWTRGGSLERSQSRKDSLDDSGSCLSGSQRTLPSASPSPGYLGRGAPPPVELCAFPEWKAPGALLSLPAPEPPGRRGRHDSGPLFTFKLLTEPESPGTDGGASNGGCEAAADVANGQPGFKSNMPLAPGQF
Description: Displacement of [3H]prazosin from Alpha-1B receptor expressed in HEK293 EBNA cells by radioligand binding assay

[10] = target: T1, Alpha-1A adrenergic receptor; test: biochemical
Description: Displacement of [3H]prazosin from alpha1A receptor expressed in HEK293 EBNA cells by radioligand binding assay

[11] = target: 5-hydroxytryptamine receptor 1D (Homo sapiens, UniProt P28221); test: biochemical
Description: Displacement of [3H]GR127543 from 5HT1D receptor expressed in HEK293 EBNA cells by radioligand binding assay

[12] = target: 5-hydroxytryptamine receptor 7 (Homo sapiens, UniProt P34969); test: biochemical
Description: Displacement of [3H]LSD from 5HT7 receptor expressed in HEK293 EBNA cells by radioligand binding assay

[13] = target: 5-hydroxytryptamine receptor 2B (Homo sapiens, UniProt P41595); test: biochemical
Description: Displacement of [3H]LSD from 5HT2B receptor expressed in HEK293 EBNA cells by radioligand binding assay

[14] = target: T2, 5-hydroxytryptamine receptor 1A; test: biochemical; remark: listed apart in the source
Description: Displacement of [3H]8-OH-DPAT from 5HT1A receptor expressed in HEK293 EBNA cells by radioligand binding assay

5-hydroxytryptamine receptor 7, sequence (P34969 whole entry): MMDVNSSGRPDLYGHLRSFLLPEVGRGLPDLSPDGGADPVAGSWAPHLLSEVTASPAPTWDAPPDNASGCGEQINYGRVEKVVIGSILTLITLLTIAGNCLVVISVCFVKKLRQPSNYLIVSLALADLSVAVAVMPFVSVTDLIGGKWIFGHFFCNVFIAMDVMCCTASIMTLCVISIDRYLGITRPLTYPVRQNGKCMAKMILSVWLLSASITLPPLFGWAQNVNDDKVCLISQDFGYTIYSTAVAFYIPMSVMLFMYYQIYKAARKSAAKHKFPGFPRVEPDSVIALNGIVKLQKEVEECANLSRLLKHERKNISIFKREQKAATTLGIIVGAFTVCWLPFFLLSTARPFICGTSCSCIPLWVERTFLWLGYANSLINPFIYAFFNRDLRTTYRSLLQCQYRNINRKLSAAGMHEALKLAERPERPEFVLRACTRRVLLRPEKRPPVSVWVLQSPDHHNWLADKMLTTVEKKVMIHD
5-hydroxytryptamine receptor 2B, sequence (P41595 whole entry): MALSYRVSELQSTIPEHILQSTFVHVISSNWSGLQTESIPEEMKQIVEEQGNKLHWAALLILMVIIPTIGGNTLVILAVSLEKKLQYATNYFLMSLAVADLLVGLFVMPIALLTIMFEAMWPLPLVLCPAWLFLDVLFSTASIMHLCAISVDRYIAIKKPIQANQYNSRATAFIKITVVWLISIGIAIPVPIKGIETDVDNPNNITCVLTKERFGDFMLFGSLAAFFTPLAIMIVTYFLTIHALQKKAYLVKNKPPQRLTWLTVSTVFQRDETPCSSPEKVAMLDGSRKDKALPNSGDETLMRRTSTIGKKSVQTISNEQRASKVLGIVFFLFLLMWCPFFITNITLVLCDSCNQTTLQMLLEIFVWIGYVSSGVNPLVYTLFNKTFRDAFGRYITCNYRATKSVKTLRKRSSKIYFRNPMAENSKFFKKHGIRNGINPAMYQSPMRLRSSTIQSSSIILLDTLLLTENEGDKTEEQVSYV
5-hydroxytryptamine receptor 1D, sequence (P28221 whole entry): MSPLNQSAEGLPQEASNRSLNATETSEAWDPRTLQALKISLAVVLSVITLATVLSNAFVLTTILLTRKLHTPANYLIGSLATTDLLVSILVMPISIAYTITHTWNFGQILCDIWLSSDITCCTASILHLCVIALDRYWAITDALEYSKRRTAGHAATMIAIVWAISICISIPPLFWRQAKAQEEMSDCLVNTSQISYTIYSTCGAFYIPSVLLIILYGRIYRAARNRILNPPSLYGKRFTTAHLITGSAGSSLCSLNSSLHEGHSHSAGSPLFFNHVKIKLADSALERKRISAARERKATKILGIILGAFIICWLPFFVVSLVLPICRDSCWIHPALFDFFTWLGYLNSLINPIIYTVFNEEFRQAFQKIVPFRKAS

Structure (SMILES): COc1ccccc1N1CCN(CCN(C(=O)c2ccc([18F])cc2)c2ccccn2)CC1
- pKi [1]: 6.82
- Stability [2]: 8.4%

Structure (SMILES): O=C(N(CCN1CCN(c2ccccc2O)CC1)c1ccccn1)C12C3C4C1C1C2C3C41CF (centres undefined)
- pIC50 [3]: 8.87
- pKi [3]: 9.24

Structure (SMILES): O=C(N(CCN1CCN(c2ccccc2O)CC1)c1ccccn1)C12CC3CC(CC(CF)(C3)C1)C2
- pIC50 [3]: 8.59
- pKi [3]: 8.96

Structure (SMILES): O=C(N(CCN1CCN(c2ccccc2O)CC1)c1ccccn1)C12CCC(CF)(CC1)C2
- pIC50 [3]: 8.76
- pKi [3]: 9.13

Structure (SMILES): O=C(N(CCN1CCN(c2ccccc2O)CC1)c1ccccn1)C12CCC(CF)(CC1)CC2
- pIC50 [3]: 8.75
- pKi [3]: 9.12

Structure (SMILES): COc1ccccc1N1CCN(CCN(C(=O)C23C4C5C2C2C3C4C52C[18F])c2ccccn2)CC1 (centres undefined)
- Stability [2]: 17.4%
- Stability [4]: 30.7%
- Stability [5]: 73.2%

Structure (SMILES): COc1ccccc1N1CCN(CCN(C(=O)C23C4C5C2C2C3C4C52CF)c2ccccn2)CC1 (centres undefined)
- logD [6]: 2.94
- pIC50 [3]: 8.90
- pKi [3]: 9.27
- pKi [7]: 7.15
- pKi [8]: 7.57
- pKi [9]: 6.75
- pKi [10]: 7.80
- pKi [11]: 6.91
- pKi [12]: 6.88
- pKi [13]: 7.00
- pKi [14]: 9.70

Structure (SMILES): COc1ccccc1N1CCN(CCN(C(=O)C23CCC(CF)(CC2)C3)c2ccccn2)CC1
- logD [6]: 2.7
- pIC50 [3]: 8.69
- pKi [3]: 9.07
- pKi [7]: 7.04
- pKi [8]: 7.72
- pKi [9]: 7.42
- pKi [10]: 7.44
- pKi [11]: 7.04
- pKi [12]: 7.01
- pKi [13]: 7.06
- pKi [14]: 9.05

Structure (SMILES): COc1ccccc1N1CCN(CCN(C(=O)C23CCC(CF)(CC2)CC3)c2ccccn2)CC1
- logD [6]: 3.37
- pIC50 [3]: 8.82
- pKi [3]: 9.19
- pKi [7]: 7.08
- pKi [8]: 7.14
- pKi [9]: 6.96
- pKi [10]: 7.13
- pKi [11]: 6.44
- pKi [12]: 7.11
- pKi [13]: 7.10
- pKi [14]: 8.96

Structure (SMILES): COc1ccccc1N1CCN(CCN(C(=O)c2ccc([18F])c(C)c2)c2ccccn2)CC1
- pKi [1]: 7.88

Structure (SMILES): COc1ccccc1N1CCN(CCN(C(=O)C23CC4CC(CC(CF)(C4)C2)C3)c2ccccn2)CC1
- pIC50 [3]: 8.37
- pKi [3]: 8.74
